The values that follow come from patent US4119730A, “Treating muscle spasms” (Chimicasa GmbH, priority 1976, dated 1978).

Data set [1] concerns isolated guinea pig intestine. The data set can be described thus: inhibition of histamine-induced contraction of isolated guinea pig intestine. Conditions: Cavia porcellus, 2 min, read-out: ED50 (concentration of agent per liter of bath liquid which inhibits the contraction of the intestine by 50%). The protocol:
The antispasmodic effect of the compounds (I) could not be expected from a study of their structure alone. Their effectiveness has been measured in a pharmacological standard test as follows:
Several 3 cm-long pieces of an isolated guinea pig intestine were stretched under a load of 0.5 g in separate baths. In all baths, the bath liquid was Tyrode's solution, warmed to 32° C. A first contraction of the pieces of intestine was produced in each case by adding 0.5 mg (milligram) of histamine chloride per liter of bath liquid. he reduction in length caused by the first contraction was measured 2 min (minutes) after adding the histamine chloride.
The bath liquids were then renewed and, after relaxation of the first contraction, the agent under test, dissolved in propylene glycol, was added to the bath liquids and 2 min later 0.5 mg. of histamine chloride per liter of bath liquid was again added. A second contraction was thereby produced and the reduction in length caused by this was measured 2 min after the addition of the histamine chloride. […] The concentrations (ED50) of agent per liter of bath liquid, which inhibit the contraction of the intestine by 50% were determined (ED50 = effective dose to inhibit for 50%).

Data set [2] deals with bladder. The data set can be described thus: cystometric measuring of the damping of the increase of the bladder tonus caused by a spasmogenic agent (carbachol). In kind it is in vivo, human. The protocol: The effectiveness test is performed by cystometric measuring of the damping of the increase of the bladder tonus caused by the antispasmodic agent after intravesical administration of a spasmogenic agent as follows:
The bladder capacity (BC) of several human subjects with indwelling permanent catheters is measured by filling the bladders with water warmed to 37° C. The maximum micturition pressure (MM) in the case of the filled bladder is measured. The bladder is then emptied and filled again with warm, clean water to half the capacity measured previously (1/2 BC) and the pressure P1 in the case of the half-filled bladder is measured. The bladder is again emptied and filled again to half its capacity with a solution 1. […] The pressure P2 for half its capacity is measured. […] 30 minutes thereafter the emptied bladder is filled with water, warmed to 37° C. to half its capacity and the pressure P3 is measured. The bladder is subsequently emptied and filled to half its capacity with the solution 1 and the pressure P4 is measured. Fifteen minutes later, the bladder is emptied again and filled to half its capacity with water, warmed to 37° C. and the pressure P5 is measured. Directly thereafter, the bladder is emptied and filled to half its capacity with solution 1 and the pressure P6 is measured. […]

The conditions of data set [3]: cited from earlier work.
[4] abbreviates: 0.5 mg histamine chloride per liter, Tyrode's solution, 32° C.

In brackets after ≈: the same amount, converted by molar mass. Where two headings read alike, the source gives them in different places.

As for `C=CCc1ccc(OC(C)=O)c(OC)c1` [4-Allyl-2-methoxyphenyl acetate], the IC50 in data set [1] (setting [4]) came out at 25 µg/mL. Moreover, the effectiveness on humans result in data set [2] (rectal or oral) is recorded as “effectiveness”. As for `C=CCc1ccc(OC(=O)CCC)c(OC)c1` [4-Allyl-2-methoxyphenyl butanoate], in data set [1] (setting [4]), the IC50 is 14.5 µg/mL (≈ 61.9 µM). With `C=CCc1ccc(OC)c(OC)c1` [1-Allyl-3,4-dimethoxybenzene], the IC50 in data set [1] is 11.8 µg/mL (≈ 66.2 µM). In data set [2] (rectal), the effectiveness on humans result was “effectiveness”.

Regarding `COc1ccc(Cc2nccc3cc(OC)c(OC)cc23)cc1OC` [Papaverine], the non-specific actions entry in data set [3] (in vivo) is given as “observed”. In addition, in data set [3] (prior art), the “activity in animal experiments” value was “very active in animal experiments” and the “activity when used on humans” value was “its activity is insufficient”. In addition, in data set [3] (prior art, lethal dose from animal experiments), the “dosage required in severe spasms relative to lethal dose” value is given as “very high dosages, near the lethal dose”. `CC=Cc1ccc(OC(C)=O)c(OC)c1` [2-Methoxy-4-propenylphenyl acetate]: in data set [1], the IC50 came out at 52 µg/mL.

As to `CC=Cc1ccc(OC)c(OC)c1` [3,4-Dimethoxy-propenylbenzol], the IC50 in data set [1] (setting [4]) was found to be 27 µg/mL (≈ 151 µM). Still for that read-out and setting: under `C=CCc1ccc(OC(=O)CCCC)c(OC)c1` [4-Allyl-2-methoxyphenyl valerate] stands 44.6 µg/mL (≈ 180 µM); under `C=CCc1ccc(OC(=O)c2ccccc2)c(OC)c1` [4-Allyl-2-methoxyphenyl benzoate], 160 µg/mL (≈ 596 µM). Take `CN1[C@@H]2CC[C@H]1C[C@@H](OC(=O)C(CO)c1ccccc1)C2` (stereo partly drawn) [atropine]: the drug dependence result in data set [3] (especially with long term treatment, prior art) is recorded as “drug dependence can occur”. For the same compound, in data set [3] (known antispasmodic, prior art), the “side effects associated with use” value is “inducement of sleepiness, mental confusion and a state of inattentiveness”.
